Results: PubChem BioAssay (NCI)
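Test compounds were applied to cells in 96-well plates for 48 hours at 5 doses. Definition used: TGI = concentration required for complete inhibition of growth.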

Tests used:
Experiment in all cases: NCI anticancer screen, dose series, 48 h
DU-145 prostate = test system: DU-145 prostate
PC-3 prostate = test system: PC-3 prostate
OVCAR-8 ovarian = test system: OVCAR-8 ovarian
OVCAR-5 ovarian = test system: OVCAR-5 ovarian
MDA-N = test system: MDA-N
K-562 leukemia = test system: K-562 leukemia
NCI/ADR-RES ovarian = test system: NCI/ADR-RES ovarian
CAKI-1 renal = test system: CAKI-1 renal
A549 NSCLC = test system: A549 NSCLC
A498 renal = test system: A498 renal
ACHN renal = test system: ACHN renal
HS 578T breast = test system: HS 578T breast
SF-295 CNS = test system: SF-295 CNS
SN12C renal = test system: SN12C renal
IGROV1 ovarian = test system: IGROV1 ovarian
SK-MEL-5 melanoma = test system: SK-MEL-5 melanoma
M14 melanoma = test system: M14 melanoma
KM12 colon = test system: KM12 colon
MDA-MB-435 = test system: MDA-MB-435
U251 CNS = test system: U251 CNS
MDA-MB-231 breast = test system: MDA-MB-231 breast
HOP-62 NSCLC = test system: HOP-62 NSCLC
UACC-257 melanoma = test system: UACC-257 melanoma
OVCAR-4 ovarian = test system: OVCAR-4 ovarian
NCI-H226 lung = test system: NCI-H226 lung
SF-539 CNS = test system: SF-539 CNS
CCRF-CEM leukemia = test system: CCRF-CEM leukemia
SNB-75 CNS = test system: SNB-75 CNS
UACC-62 melanoma = test system: UACC-62 melanoma
NCI-H23 lung = test system: NCI-H23 lung
SK-OV-3 ovarian = test system: SK-OV-3 ovarian
HT29 colon = test system: HT29 colon
SNB-19 CNS = test system: SNB-19 CNS
OVCAR-3 ovarian = test system: OVCAR-3 ovarian
NCI-H522 lung = test system: NCI-H522 lung
SW-620 colon = test system: SW-620 colon
COLO 205 colon = test system: COLO 205 colon
MCF7 breast = test system: MCF7 breast
MOLT-4 leukemia = test system: MOLT-4 leukemia
HCT-15 colon = test system: HCT-15 colon
T-47D breast = test system: T-47D breast
EKVX NSCLC = test system: EKVX NSCLC
HL-60(TB) leukemia = test system: HL-60(TB) leukemia
HCT-116 colon = test system: HCT-116 colon
BT-549 breast = test system: BT-549 breast
SK-MEL-28 melanoma = test system: SK-MEL-28 melanoma
RPMI-8226 leukemia = test system: RPMI-8226 leukemia
TK-10 renal = test system: TK-10 renal
LOX IMVI melanoma = test system: LOX IMVI melanoma
SF-268 CNS = test system: SF-268 CNS
NCI-H460 lung = test system: NCI-H460 lung
SK-MEL-2 melanoma = test system: SK-MEL-2 melanoma
786-0 renal = test system: 786-0 renal
HCC-2998 colon = test system: HCC-2998 colon
UO-31 renal = test system: UO-31 renal
MALME-3M melanoma = test system: MALME-3M melanoma
RXF 393 renal = test system: RXF 393 renal
HOP-92 NSCLC = test system: HOP-92 NSCLC
SR leukemia = test system: SR leukemia

Measured: TGI

O=C(Nc1ccn(C2CC(O)C(CO)O2)c(=O)n1)c1ccccc1 (centres undefined)
not listed: HCC-2998 colon | UO-31 renal | MALME-3M melanoma | RXF 393 renal | HOP-92 NSCLC | SR leukemia
> 100 µM: all other assays above

O=[N+]([O-])C(=C1NCCN1)/C(Cl)=C(/Cl)N1CCOCC1
not listed: IGROV1 ovarian | SK-MEL-5 melanoma | NCI-H522 lung | HL-60(TB) leukemia | TK-10 renal | LOX IMVI melanoma | RXF 393 renal | HOP-92 NSCLC | SR leukemia
> 100 µM: all other assays above

CCOc1cc(NC(C)=O)ccc1C(=O)NN1C(=O)/C(=C/c2ccco2)N=C1c1ccccc1
not listed: U251 CNS | MDA-MB-231 breast | TK-10 renal
> 100 µM: all other assays above
